According to patent publication US20080276732A1, “INDICATOR FOR ORALLY ADMINISTERED COMPOSITIONS” (MULTI FORMULATIONS LTD., priority 2007, published 2008):
Values joined by “and” are separate entries in the source; they are usually repeats but may differ in a detail not shown here. Identical values can stand only once. “Also recorded” adds a separate entry of the source. Like-named read-outs stand apart in the source and are kept apart here.

Tests used:
individuals = details: Niacin at pharmacologically active doses; Benyo et al. 2005; cited from earlier work
subjects [1] = details: single 30 mg oral dose of Niacin
Method: In order to test the ability of orally administered Niacin to induce a sensory effect a test was conducted. Five subjects were given a capsule containing Niacin and asked to report on any perceived sensory effects. Each capsule contained 30 mg of Niacin and filled to 150 mg with lactose as a filler-binder. Subjects were informed of the capsule contents and of possible effects. Subjects were asked to report any sensory effects felt, the time to onset and the duration of any effects.

subjects [2] = test: Testing the efficacy of Picamilon in capsule form: perceived sensory effects after oral administration; type: in vivo, human; details: single 100 mg oral dose of Picamilon
Method: (§1) In order to test the ability of orally administered Picamilon to induce a sensory effect a test was conducted. Six subjects were given a capsule containing Picamilon and asked to report on any perceived sensory effects. Each capsule contained 100 mg of Picamilon and filled to 150 mg with lactose as a filler-binder.

subjects [3] = test: Testing the efficacy of Yohimbine in capsule form: perceived sensory effects after oral administration; type: in vivo, human
Method: as §1, with “Yohimbine” for “Picamilon”, “Four” for “Six”, “5” for “100”

[4] = per subject, subject 1 separately for warmth and tingling
[5] = single 5 mg oral dose of Yohimbine, per subject

O=C(O)c1cccnc1 [Niacin, nicotinic acid]
duration of the flushing effect (individuals): about 1 hr | Duration (subjects [1]; capsule, one line per subject): 45 min (2×) and 15 min | Time to Onset (subjects [1]; capsule, one line per subject): 10 to 15 min and 20 min and 15 min | subjects who experienced transient sensory effects (subjects [1]; five subjects): three of the five | time until the individual perceives a sensory effect (summary) (subjects [1]; summary of Table 1): ≤ 15 min

O=C(O)CCCNC(=O)c1cccnc1 [Picamilon, N-nicotinoyl-gamma-aminobutyric acid]
Sensory Effect(s) (subjects [2]; capsule, one line per subject (1-6)): tingling; also recorded: relaxation; also recorded: warmth - body | Duration (subjects [2]; per subject): 1.5 h | Duration (subjects [2]; [4]): 15-20 min and 45 min and 5 min (warmth) and 15 min | Time to Onset (subjects [2]; [4]): 15 min and 15-20 min (2×) and 10 min (warmth) and 30 min | subjects who reported noticeable effects (subjects [2]; six subjects): four of the six

COC(=O)[C@@H]1[C@H]2C[C@H]3c4[nH]c5ccccc5c4CCN3C[C@@H]2CC[C@@H]1O [Yohimbine]
onset time and duration of perceived sensory effects on average compared with Niacin and Picamilon (subjects [3]; 5 mg Yohimbine, oral): longer onset time and longer duration | subjects who reported noticeable effects (subjects [3]; single 5 mg oral dose of Yohimbine, four subjects): three of the four | Duration (subjects [3]; [5]): 10 to 15 min and 60 min and 120 min | Time to Onset (subjects [3]; [5]): 1 h and 0.5 h and 0.25 h
